Data set [1] in a line: Stability assay in human serum. It is filed as in vitro ADME. The settings on record: initial 300 μM; for remaining at 24 h, 300 μM: male, human, human serum, over a 24-h period, read-out: peptide remained in human serum. How it is done:
All peptides were tested on human serum from male AB plasma (Sigma–Aldrich) at an initial concentration of 300 μM. Peptide incubation time points were 0, 2, 4, 8, 16 and 24 h. Samples were prepared according to previously described methods. Briefly, 90 μL of supernatant was taken at each time point and chromatographed on a 0.3 mL/min Phenomenex column using a linear 1%/min gradient of 0–50% solvent B on an analytical reverse-phase HPLC (Agilent). The elution times for all peptides were determined by the serum control at 0 h. The stability of each peptide for each time point was calculated as the height of the serum-treated peptide peak at 215 nm as percentage of the height of the 0-h serum-treated control. Experiments were done in triplicate.

For the next data set, the system named is Human red blood cells. Briefly: Hemolytic assay. It is filed as cell-based. As to conditions: peptides 0.01–50 μM; melittin positive control from 20 μM. How it is done:
Human red blood cells were used to measure the hemolysis of all peptides, with melittin used as a positive control. Peptides concentrations were 50 μM, 25 μM, 10 μM, 5 μM, 1 μM, 0.5 μM, 0.1 μM and 0.01 μM. Melittin was tested at eight concentrations, with two-fold dilution from a concentration of 20 μM. Sample absorbance was measured at 415 nm using a BioTek PowerWave XS instrument, as described previously. Experiments were done in triplicate.

Data set [2] concerns HT-29 (colon cancer cells). Briefly: Cell proliferation assay (MTT, 72 h). It is filed as cell-based. The settings on record: 72-h period. How it is done:
(§1) All cells were maintained using the media conditions described above, and passages 2–10 were used for all cell lines. Cell numbers of 2.5×10^3 cells/well (100 μL) were used for both HUVECs and HMVECs, and 1.5×10^3 cells/well (100 μL) were used for other cell lines in this assay. All cells were allowed to attach for 24 h after plating. Cells were treated with fresh media the next day, before the addition of peptides and then incubated for 72 h. Similar peptide concentrations to those mentioned above (in the cell cytotoxicity section) were used. 0.1% (v/v) Triton X-100 (10 μL) was used as a positive control. After 72 h of incubation, MTT and DMSO were added and analysed using the same method as described above.

Data set [3] has as its system PC3 cells (prostate cancer cells). Briefly: Cell proliferation assay (MTT, 72 h). As to conditions: PC-3; 72-h period. It is filed as cell-based. How it is done:
as §1

The subject of data set [4] is matriptase over-expressed PC-3 cell line. Also noted: method as in PMID 24696092. As to conditions: cited from earlier work.
The next data set deals with HMVECs. Also noted: method as in PMID 15716381. As to conditions: at 5 nM; cited from earlier work.
In another data set the test system is HUVECs. Also noted: method as in PMID 15716381. As to conditions: at 16 nM; cited from earlier work.

Where a SMILES comes first, the peptide text is derived from it. Bridges are numbered along the chain shown (N, C = ends). [ ]: non-standard residue; d: D form. Bounds are passed on as bounds.

`CC[C@@H](C)[C@H]1NC(=O)[C@H](C(C)C)NC(=O)CNC(=O)[C@@H]2CSSC[C@@H]3NC(=O)[C@H](CC(=O)O)NC(=O)[C@H](CO)NC(=O)[C@H](CC(=O)O)NC(=O)[C@H](CCCNC(=N)N)NC(=O)[C@H](CCCNC(=N)N)NC(=O)[C@@H]4CSSC[C@H](NC(=O)[C@H]([C@@H](C)CC)NC(=O)[C@H](CSSC[C@H](NC(=O)[C@H](CCCNC(=N)N)NC(=O)[C@H]([C@@H](C)CC)NC(=O)[C@H](CCCNC(=N)N)NC(=O)[C@H]([C@@H](C)O)NC1=O)C(=O)N1CCC[C@H]1C(=O)N[C@@H](CCCCN)C(=O)N[C@@H]([C@@H](C)CC)C(=O)N[C@@H](CC(C)C)C(=O)N[C@@H](CCCCN)C(=O)N[C@@H](CCCCN)C(=O)N4)NC(=O)[C@H](C)NC(=O)CNC(=O)[C@@H]1CCCN1C3=O)C(=O)N[C@@H](CCCNC(=N)N)C(=O)NCC(=O)N[C@@H](CC(N)=O)C(=O)NCC(=O)N[C@@H](Cc1ccc(O)cc1)C(=O)N2` [MCo-TSP-1] (cyclo(ACICRGNGYCGV[dI]TRIRCPKILKKCRRDSDCPG); disulfide 2-18, 4-25, 10-31): the remaining at 24 h, 300 μM in data set [1] was more than 50%.

With `CC[C@@H](C)[C@H]1NC(=O)[C@H](C(C)C)NC(=O)CNC(=O)[C@@H]2CSSC[C@H](NC(=O)[C@H](CCCNC(=N)N)NC(=O)[C@H]([C@@H](C)CC)NC(=O)[C@H](CCCNC(=N)N)NC(=O)[C@H]([C@@H](C)O)NC1=O)C(=O)N[C@@H]([C@@H](C)O)C(=O)N[C@@H](CCCCN)C(=O)N[C@@H](CO)C(=O)N[C@@H]([C@@H](C)CC)C(=O)N1CCC[C@H]1C(=O)N1CCC[C@H]1C(=O)N[C@@H]([C@@H](C)CC)C(=O)N2` [SFTI-TSP-1, CTKSIPPICGViTRIR], the remaining at 24 h, 300 μM in data set [1] is more than 50%.

As to `CC[C@@H](C)[C@@H](NC(=O)[C@@H](NC(=O)CN)C(C)C)C(=O)N[C@H](C(=O)N[C@@H](CCCNC(=N)N)C(=O)N[C@H](C(=O)N[C@@H](CCCNC(=N)N)C(=O)O)[C@@H](C)CC)[C@@H](C)O` [linear TSP-1 heptapeptide, GViTRIR] (H-GV[dI]TRIR-OH), in data set [1], the “time within which degraded in human serum” value is given as not above 24 h.

On to `CC[C@H](C)[C@H](NC(=O)CN)C(=O)NCC(=O)N[C@@H](C)C(=O)N[C@H](C(=O)N[C@@H](CC(C)C)C(=O)N[C@@H](CCCCN)C(=O)N[C@H](C(=O)N[C@@H](CC(C)C)C(=O)N[C@H](C(=O)N[C@H](C(=O)NCC(=O)N[C@@H](CC(C)C)C(=O)N1CCC[C@H]1C(=O)N[C@@H](C)C(=O)N[C@@H](CC(C)C)C(=O)N[C@H](C(=O)N[C@@H](CO)C(=O)N[C@@H](Cc1c[nH]c2ccccc12)C(=O)N[C@H](C(=O)N[C@@H](CCCCN)C(=O)N[C@@H](CCCNC(=N)N)C(=O)N[C@@H](CCCCN)C(=O)N[C@@H](CCCNC(=N)N)C(=O)N[C@@H](CCC(N)=O)C(=O)N[C@@H](CCC(N)=O)C(N)=O)[C@@H](C)CC)[C@@H](C)CC)[C@@H](C)O)[C@@H](C)O)C(C)C)C(C)C` [melittin], for which the “haemolysis of human red blood cells” value in the data set on Human red blood cells was “highly haemolytic”.

Take “Momordica cochinchinensis trypsin inhibitor-II [MCoTI-II]”: the anti-proliferative effect result in data set [2] and in data set [3] was “minor anti-proliferative effects” throughout. Besides, the “effect on invasive cell migration” value in data set [4] was “inhibited invasive cell migration”.

Take sunflower trypsin inhibitor-1 [SFTI-1]: the anti-proliferative effect result in data set [2] and in data set [3] was “minor anti-proliferative effects” throughout.

Turning to thrombospondin-1 type-1 repeats [TSR], in the data set on HMVECs, the “inhibition on HMVECs (migration)” value is listed as 35%. Besides, the “inhibition on HUVECs (migration)” value with HUVECs was 60%.

Source of the values: PMC4660582, “Cyclic thrombospondin-1 mimetics: grafting of a thrombospondin sequence into circular disulfide-rich frameworks to inhibit endothelial cell migration” (Bioscience Reports, 2015).
